What was measured:
Assay in all cases: preservation efficacy test (PET), European Pharmacopoeia 5.1.3
Format in all cases: cell-based
Escherichia coli = details: for count at 2 days / count at 7 days / count at 14 days / count at 28 days: EC, use concentration in label; for EC germ count, 2 days / EC germ count, 7 days / EC germ count, 14 days / EC germ count, 28 days: substance at given % in test formulation
Aspergillus brasiliensis = system: Aspergillus brasiliensis
Staphylococcus aureus = details: for count at 2 days / count at 7 days / count at 14 days / count at 28 days: SA, use concentration in label; for SA germ count, 7 days / SA germ count, 14 days / SA germ count, 28 days: substance at given % in test formulation
Pseudomonas aeruginosa = details: for count at 2 days / count at 7 days / count at 14 days / count at 28 days: PA, use concentration in label; for PA germ count, 2 days / PA germ count, 7 days / PA germ count, 14 days / PA germ count, 28 days: substance at given % in test formulation
Candida albicans = details: for CA germ count, 2 days / CA germ count, 7 days / CA germ count, 14 days / CA germ count, 28 days: substance at given % in test formulation
[1] = AB, 28 days after inoculation, use concentration in label
[2] = CA, 28 days after inoculation, use concentration in label
[3] = 7 days after inoculation, substance at given % in test formulation
[4] = 14 days after inoculation, substance at given % in test formulation
[5] = 28 days after inoculation, substance at given % in test formulation

## O=C([O-])CN(CCN(CC(=O)O)CC(=O)O)CC(=O)[O-].[Na+].[Na+] [0.2 % Disodium EDTA]
Escherichia coli; 2 days after inoculation
  count at 2 days: 330.000
Escherichia coli; 7 days after inoculation
  count at 7 days: 85.000
Escherichia coli; 14 days after inoculation
  count at 14 days: 85.000
Escherichia coli; 28 days after inoculation
  count at 28 days: 1.800
Aspergillus brasiliensis; AB, 2 days after inoculation, use concentration in label
  count at 2 days: 990.000
Aspergillus brasiliensis; AB, 7 days after inoculation, use concentration in label
  count at 7 days: 590.000
Aspergillus brasiliensis; AB, 14 days after inoculation, use concentration in label
  count at 14 days: 590.000
Aspergillus brasiliensis; [1]
  count at 28 days: 330.000
Staphylococcus aureus; 2 days after inoculation
  count at 2 days: 530.000
Staphylococcus aureus; 7 days after inoculation
  count at 7 days: 49.000
Staphylococcus aureus; 14 days after inoculation
  count at 14 days: 49.000
Staphylococcus aureus; 28 days after inoculation
  count at 28 days: 2.500
Pseudomonas aeruginosa; 2 days after inoculation
  count at 2 days: 1
Pseudomonas aeruginosa; 7 days after inoculation
  count at 7 days: 1
Pseudomonas aeruginosa; 14 days after inoculation
  count at 14 days: 1
Pseudomonas aeruginosa; 28 days after inoculation
  count at 28 days: 1
Candida albicans; [2]
  count at 28 days: 810.000

## COc1ccc(C(=O)O)cc1 [anisic acid, reference compound]
Escherichia coli; PET, Escherichia coli (EC), 2 days after inoculation
  number of microorganisms, 2 days: 1
Escherichia coli; PET, Escherichia coli (EC), 7 days after inoculation
  number of microorganisms, 7 days: 1
Escherichia coli; PET, Escherichia coli (EC), 14 days after inoculation
  number of microorganisms, 14 days: 1
Escherichia coli; PET, Escherichia coli (EC), 28 days after inoculation
  number of microorganisms, 28 days: 1
Aspergillus brasiliensis; PET, Aspergillus brasiliensis (AB), 2 days after inoculation
  number of microorganisms, 2 days: 650.000
Aspergillus brasiliensis; PET, Aspergillus brasiliensis (AB), 7 days after inoculation
  number of microorganisms, 7 days: 360.000
Aspergillus brasiliensis; PET, Aspergillus brasiliensis (AB), 14 days after inoculation
  number of microorganisms, 14 days: 1
Aspergillus brasiliensis; PET, Aspergillus brasiliensis (AB), 28 days after inoculation
  number of microorganisms, 28 days: 1
Staphylococcus aureus; PET, Staphylococcus aureus (SA), 2 days after inoculation
  number of microorganisms, 2 days: 1
Staphylococcus aureus; PET, Staphylococcus aureus (SA), 7 days after inoculation
  number of microorganisms, 7 days: 1
Staphylococcus aureus; PET, Staphylococcus aureus (SA), 14 days after inoculation
  number of microorganisms, 14 days: 1
Staphylococcus aureus; PET, Staphylococcus aureus (SA), 28 days after inoculation
  number of microorganisms, 28 days: 1
Pseudomonas aeruginosa; PET, Pseudomonas aeruginosa (PA), 2 days after inoculation
  number of microorganisms, 2 days: 1
Pseudomonas aeruginosa; PET, Pseudomonas aeruginosa (PA), 7 days after inoculation
  number of microorganisms, 7 days: 1
Pseudomonas aeruginosa; PET, Pseudomonas aeruginosa (PA), 14 days after inoculation
  number of microorganisms, 14 days: 1
Pseudomonas aeruginosa; PET, Pseudomonas aeruginosa (PA), 28 days after inoculation
  number of microorganisms, 28 days: 1
Candida albicans; PET, Candida albicans (CA), 2 days after inoculation
  number of microorganisms, 2 days: 7.000
Candida albicans; PET, Candida albicans (CA), 7 days after inoculation
  number of microorganisms, 7 days: 9.000
Candida albicans; PET, Candida albicans (CA), 14 days after inoculation
  number of microorganisms, 14 days: 1
Candida albicans; PET, Candida albicans (CA), 28 days after inoculation
  number of microorganisms, 28 days: 1

## COC(=O)c1ccc(O)cc1 [0.1% Methylparaben]
Escherichia coli; 2 days after inoculation
  EC germ count, 2 days: 680.000
Escherichia coli; 7 days after inoculation
  EC germ count, 7 days: 18.000
Escherichia coli; 14 days after inoculation
  EC germ count, 14 days: 45
Escherichia coli; 28 days after inoculation
  EC germ count, 28 days: 1
Aspergillus brasiliensis; 2 days after inoculation, substance at given % in test formulation
  AB germ count, 2 days: 300.000
Aspergillus brasiliensis; [3]
  AB germ count, 7 days: 690.000
Aspergillus brasiliensis; [4]
  AB germ count, 14 days: 300.000
Aspergillus brasiliensis; [5]
  AB germ count, 28 days: 240.000
Staphylococcus aureus; 7 days after inoculation
  SA germ count, 7 days: 6.100
Staphylococcus aureus; 14 days after inoculation
  SA germ count, 14 days: 140
Staphylococcus aureus; 28 days after inoculation
  SA germ count, 28 days: 1
Pseudomonas aeruginosa; 2 days after inoculation
  PA germ count, 2 days: 1
Pseudomonas aeruginosa; 7 days after inoculation
  PA germ count, 7 days: 1
Pseudomonas aeruginosa; 14 days after inoculation
  PA germ count, 14 days: 1
Pseudomonas aeruginosa; 28 days after inoculation
  PA germ count, 28 days: 1
Candida albicans; 2 days after inoculation
  CA germ count, 2 days: 100.000
Candida albicans; 7 days after inoculation
  CA germ count, 7 days: 210.000
Candida albicans; 14 days after inoculation
  CA germ count, 14 days: 85.000
Candida albicans; 28 days after inoculation
  CA germ count, 28 days: 11.000

## CCOC(=O)c1ccc(O)cc1 [0.1% Ethylparaben]
Escherichia coli; 2 days after inoculation
  EC germ count, 2 days: 440.000
Escherichia coli; 7 days after inoculation
  EC germ count, 7 days: 62.000
Escherichia coli; 14 days after inoculation
  EC germ count, 14 days: 280
Escherichia coli; 28 days after inoculation
  EC germ count, 28 days: 390
Aspergillus brasiliensis; [3]
  AB germ count, 7 days: 630.000
Aspergillus brasiliensis; [4]
  AB germ count, 14 days: 800.000
Aspergillus brasiliensis; [5]
  AB germ count, 28 days: 730.000
Staphylococcus aureus; 7 days after inoculation
  SA germ count, 7 days: 38.000
Staphylococcus aureus; 14 days after inoculation
  SA germ count, 14 days: 1
Staphylococcus aureus; 28 days after inoculation
  SA germ count, 28 days: 1
Pseudomonas aeruginosa; 2 days after inoculation
  PA germ count, 2 days: 1
Pseudomonas aeruginosa; 7 days after inoculation
  PA germ count, 7 days: 1
Pseudomonas aeruginosa; 14 days after inoculation
  PA germ count, 14 days: 1
Pseudomonas aeruginosa; 28 days after inoculation
  PA germ count, 28 days: 1
Candida albicans; 2 days after inoculation
  CA germ count, 2 days: 380.000
Candida albicans; 7 days after inoculation
  CA germ count, 7 days: 200.000
Candida albicans; 14 days after inoculation
  CA germ count, 14 days: 170.000
Candida albicans; 28 days after inoculation
  CA germ count, 28 days: 260.000

## CC(=O)CCc1ccc(OCCO)cc1 [0.4% Hydroxyethoxyphenyl Butanone]
Escherichia coli; 2 days after inoculation
  count at 2 days: 200
Escherichia coli; 7 days after inoculation
  count at 7 days: 1
Escherichia coli; 14 days after inoculation
  count at 14 days: 1
Escherichia coli; 28 days after inoculation
  count at 28 days: 1
Aspergillus brasiliensis; [1]
  count at 28 days: 810.000
Staphylococcus aureus; 2 days after inoculation
  count at 2 days: 39.000
Staphylococcus aureus; 7 days after inoculation
  count at 7 days: 1
Staphylococcus aureus; 14 days after inoculation
  count at 14 days: 1
Staphylococcus aureus; 28 days after inoculation
  count at 28 days: 1
Pseudomonas aeruginosa; 2 days after inoculation
  count at 2 days: 1
Pseudomonas aeruginosa; 7 days after inoculation
  count at 7 days: 1
Pseudomonas aeruginosa; 14 days after inoculation
  count at 14 days: 1
Pseudomonas aeruginosa; 28 days after inoculation
  count at 28 days: 1
Candida albicans; CA, 2 days after inoculation, use concentration in label
  count at 2 days: 95.000
Candida albicans; CA, 7 days after inoculation, use concentration in label
  count at 7 days: 1
Candida albicans; CA, 14 days after inoculation, use concentration in label
  count at 14 days: 490
Candida albicans; [2]
  count at 28 days: 450

— patent US20230293407A1, “Compositions Comprising (Bio)-Alkanediols with Antimicrobials for Product Protection” (Symrise AG, priority 2020, published 2023)
